In patent US9309226B2, “Crystalline form I of tyrosine kinase inhibitor dimaleate and preparation methods thereof” (Jiangsu Hengrui Medicine Co., Ltd., priority 2012, dated 2016):
Entries after “also recorded” stand apart in the source; their conditions may differ.

Legend:
[1] = Stability of the solid placed open in the air under illumination, heating and humidity, HPLC analysis; type: physicochemical; conditions: for HPLC analysis result, 60° C.: heating 60° C.; for HPLC analysis result, RH 90%: humidity RH 90%; for HPLC analysis result, Light: illumination 4500 Lux
Experimental: The form I crystal of SHR1258 dimaleate prepared in Example 1 and the amorphous form of SHR1258 dimaleate prepared in Example 2 were placed open in the air to test the stability in various conditions including illumination (4500 Lux), heating (60° C.), and humidity (RH 90%).

[2] = Crystal form stability after grinding, heating and pressing, evaluated by X-ray diffraction and DSC; type: physicochemical; conditions: for Stability under grinding, pressure and heating: grinded, heated and pressed, X-ray diffraction and DSC
From the text: The form I crystal of SHR1258 dimaleate prepared in Example 1 was grinded, heated and pressed, then evaluated by X-ray diffraction and DSC patterns.

Row | Compound | HPLC analysis result, 60° C. ([1]; day 0) | HPLC analysis result, 60° C. ([1]; day 5) | HPLC analysis result, 60° C. ([1]; day 10) | HPLC analysis result, RH 90% ([1]; day 0) | HPLC analysis result, RH 90% ([1]; day 5) | HPLC analysis result, RH 90% ([1]; day 10) | Stability under illumination, form I crystal compared with amorphous form [1] | HPLC analysis result, Light ([1]; day 0) | HPLC analysis result, Light ([1]; day 5) | HPLC analysis result, Light ([1]; day 10) | Stability under grinding, pressure and heating [2] | Stability under grinding, pressure and heating ([2]; listed as form I crystal of SHR1258 dimaleate) | Crystal (form after process) ([2]; grinding for 10 min under nitrogen atmosphere) | Crystal (form after process) ([2]; heating at 80° C. for 3 hours) | Crystal (form after process) ([2]; pressing into pieces) | Stability under high temperature and high moisture, compared with amorphous form ([1]; high temperature and high humidity, listed as form I crystal of SHR1258 dimaleate)
1 | CCOc1cc2ncc(C#N)c(Nc3ccc(OCc4ccccn4)c(Cl)c3)c2cc1NC(=O)/C=C/[C@H]1CCCN1C [Amorphous Form] | 98.41% | 95.24% | 93.71% | 98.41% | 96.95% | 96.31% | similar | 98.41% | 96.96% | 96.91% |  |  |  |  |  | 
2 | CCOc1cc2ncc(C#N)c(Nc3ccc(OCc4ccccn4)c(Cl)c3)c2cc1NC(=O)/C=C/[C@H]1CCCN1C [Form I Crystal, (R, E)-N-(4-(3-chloro-4-(pyridin-2-yl-methoxy)phenylamino)-3-cyano-7-ethoxyquinolin-6-yl)-3-(1-methylpyrrolidino-2-yl)acrylamide dimaleate] | 99.65% | 98.13% | 96.86% | 99.65% | 98.35% | 98.35% | similar | 99.65% | 98.20% | 97.91% | good stability | stable | Form I | Form I | Form I | significantly better than the amorphous form; also recorded: more stable
